Experiments:
Assay in all cases: relative viability vs DMSO control (72 h) (fraction); higher = more viable cells
[1] = system: A204
Method in brief: (§1)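 A 5 µM positive control and 0.1% DMSO vehicle ran alongside sarcoma cell lines seeded in 384-well plates to reach 80–90% confluence. Serially diluted compound, 2.5 µl from source plates of 10 mM to 0.0002 mM, was added after 24 h, and the plates were held 72 h at 37 °C, 5% CO2. Relative viability was worked out from ATPLite readings as percent growth averaged over up to triplicate wells. The values were rescaled so that 1 is full and 0 is none.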

[2] = system: SYO-1
Method in brief: as §1

[3] = system: SW982
Method in brief: as §1

[4] = system: HS729
Method in brief: as §1

[5] = system: KHOS-240S
Method in brief: as §1

CN(C)C(=O)c1cc2cnc(Nc3ccc(N4CCNCC4)cn3)nc2n1C1CCCC1 [Ribociclib]
relative viability
Conditions | [1] | [2] | [3] | [4] | [5]
0.00017 µM | 1.07 | 0.96 | 1.03 | 0.88 | 1.08
0.00051 µM | 1.09 | 0.956 | 1.03 | 0.877 | 1.07
0.00152 µM | 1.08 | 0.96 | 1.04 | 0.878 | 1.08
0.00457 µM | 1.09 | 0.937 | 1.0148 | 0.893 | 1.1
0.01372 µM | 1.05 | 0.923 | 1.05 | 0.905 | 1.06
0.04115 µM | 1.05 | 0.87 | 1.02 | 0.915 | 1.08
0.1235 µM | 0.967 | 0.814 | 0.992 | 0.928 | 1.04
0.3704 µM | 0.907 | 0.772 | 1.02 | 0.875 | 1.05
1.111 µM | 0.921 | 0.705 | 0.993 | 0.89 | 1
3.333 µM | 0.795 | 0.598 | 0.788 | 0.87 | 0.891
10 µM | 0.639 | 0.523 | 0.66 | 0.869 | 0.784

O=C(/C=C\n1cnc(-c2cc(C(F)(F)F)cc(C(F)(F)F)c2)n1)NNc1cnccn1 [Selinexor]
relative viability
Conditions | [1] | [2] | [3] | [4] | [5]
0.00017 µM | 1.1 | 1.02 | 1.06 | 1.07 | 1.08
0.00051 µM | 1.11 | 1.02 | 1.07 | 1.06 | 1.11
0.00152 µM | 1.08 | 1.02 | 1.08 | 1.05 | 1.08
0.00457 µM | 1.08 | 0.928 | 1.07 | 0.98 | 1.08
0.01372 µM | 0.996 | 0.804 | 1.08 | 0.929 | 1.07
0.04115 µM | 0.884 | 0.63 | 0.918 | 0.835 | 0.845
0.1235 µM | 0.677 | 0.534 | 0.53 | 0.7742 | 0.511
0.3704 µM | 0.441 | 0.41 | 0.292 | 0.741 | 0.249
1.111 µM | 0.299 | 0.25 | 0.211 | 0.676 | 0.188
3.333 µM | 0.218 | 0.136 | 0.161 | 0.602 | 0.0642
10 µM | 0.171 | 0.0755 | 0.177 | 0.499 | 0.0639

Cc1cc(F)c(C(=O)Nc2cccc(-c3nncn3C(C)C)n2)cc1-n1cnc(C2CC2)c1 [Selonsertib]
relative viability
Conditions | [1] | [2] | [3] | [4] | [5]
0.00017 µM | 1.07 | 0.95 | 1.05 | 0.914 | 1.05
0.00051 µM | 1.02 | 0.947 | 1.05 | 0.917 | 1.07
0.00152 µM | 1.03 | 0.949 | 1.07 | 0.92 | 1.04
0.00457 µM | 1.09 | 0.94 | 1.05 | 0.973 | 1.06
0.01372 µM | 1.07 | 0.95 | 1.08 | 0.936 | 1.07
0.04115 µM | 1.08 | 0.965 | 1.09 | 0.942 | 1.06
0.1235 µM | 1.1 | 0.944 | 1.07 | 0.888 | 1.07
0.3704 µM | 1.07 | 0.921 | 1.09 | 0.933 | 1.06
1.111 µM | 1.01 | 0.886 | 1.09 | 0.875 | 1.03
3.333 µM | 0.802 | 0.828 | 1.1 | 0.94 | 0.983
10 µM | 0.389 | 0.5622 | 1.07 | 0.943 | 0.736

Cn1cnc2c(F)c(Nc3ccc(Br)cc3Cl)c(C(=O)NOCCO)cc21 [Selumetinib]
relative viability
Conditions | [1] | [2] | [3] | [4] | [5]
0.00017 µM | 1.03 | 0.937 | 1.01 | 0.898 | 1.03
0.00051 µM | 1.02 | 0.931 | 1.01 | 0.929 | 1.03
0.00152 µM | 1.01 | 0.9523 | 1.02 | 0.869 | 1.01
0.00457 µM | 1.055 | 0.9263 | 1.01 | 0.894 | 0.999
0.01372 µM | 0.988 | 0.8956 | 0.99 | 0.896 | 0.959
0.04115 µM | 0.977 | 0.869 | 0.956 | 0.902 | 0.949
0.1235 µM | 0.947 | 0.829 | 0.9336 | 0.849 | 0.91
0.3704 µM | 0.973 | 0.805 | 0.902 | 0.843 | 0.8785
1.111 µM | 0.939 | 0.778 | 0.876 | 0.846 | 0.864
3.333 µM | 0.9367 | 0.733 | 0.835 | 0.82 | 0.782
10 µM | 0.811 | 0.695 | 0.804 | 0.794 | 0.723

CO[C@H]1C[C@@H]2CC[C@@H](C)[C@@](O)(O2)C(=O)C(=O)N2CCCC[C@H]2C(=O)O[C@H]([C@H](C)C[C@@H]2CC[C@@H](OC(=O)C(C)(CO)CO)[C@H](OC)C2)CC(=O)[C@H](C)/C=C(\C)[C@@H](O)[C@@H](OC)C(=O)[C@H](C)C[C@H](C)/C=C/C=C/C=C/1C [Temsirolimus]
relative viability
Conditions | [1] | [2] | [3] | [4] | [5]
0.00017 µM | 0.925 | 0.884 | 0.921 | 0.909 | 1.01
0.00051 µM | 0.762 | 0.877 | 0.828 | 0.926 | 0.954
0.00152 µM | 0.622 | 0.878 | 0.724 | 0.907 | 0.886
0.00457 µM | 0.551 | 0.83 | 0.667 | 0.931 | 0.833
0.01372 µM | 0.534 | 0.798 | 0.657 | 0.903 | 0.807
0.04115 µM | 0.504 | 0.749 | 0.657 | 0.854 | 0.802
0.1235 µM | 0.476 | 0.687 | 0.626 | 0.811 | 0.763
0.3704 µM | 0.453 | 0.633 | 0.595 | 0.758 | 0.748
1.111 µM | 0.431 | 0.589 | 0.562 | 0.753 | 0.662
3.333 µM | 0.392 | 0.544 | 0.473 | 0.739 | 0.581
10 µM | 0.334 | 0.323 | 0.385 | 0.388 | 0.222

Reference: the supplement of paper PMC10883282
